Data reported in PubChem BioAssay (NCI).
Where “and” joins values, the source holds several entries; their conditions need not be identical. Equal entries are not always repeated.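 Five concentrations, 48 hours, 96-well plates. Abbreviation: GI50, concentration required for 50% inhibition of growth. Definition used: TGI = concentration required for complete inhibition of growth.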 Where a SMILES comes first, the peptide text is derived from it. [ ]: non-standard residue; d: D form. 2Nal = N[CH](Cc1ccc2ccccc2c1)C(=O)O

Tests used:
Test in all cases: NCI tumour cell line growth inhibition, 48 h
786-0 renal = test system: 786-0 renal
NCI/ADR-RES ovarian = test system: NCI/ADR-RES ovarian
COLO 205 colon = test system: COLO 205 colon
NCI-H460 lung = test system: NCI-H460 lung
OVCAR-8 ovarian = test system: OVCAR-8 ovarian
HT29 colon = test system: HT29 colon
NCI-H23 lung = test system: NCI-H23 lung
MCF7 breast = test system: MCF7 breast
OVCAR-4 ovarian = test system: OVCAR-4 ovarian
HL-60(TB) leukemia = test system: HL-60(TB) leukemia

Compound | GI50 (786-0 renal) [µM] | TGI (786-0 renal) [µM] | TGI (NCI/ADR-RES ovarian) [µM] | GI50 (COLO 205 colon) [µM] | TGI (COLO 205 colon) | GI50 (NCI-H460 lung) [µM] | TGI (NCI-H460 lung) | GI50 (OVCAR-8 ovarian) [µM] | TGI (OVCAR-8 ovarian) | GI50 (HT29 colon) [µM] | TGI (HT29 colon) | GI50 (NCI-H23 lung) | TGI (NCI-H23 lung) [µM] | TGI (MCF7 breast) [µM] | GI50 (OVCAR-4 ovarian) | TGI (OVCAR-4 ovarian) | GI50 (HL-60(TB) leukemia) [µM] | TGI (HL-60(TB) leukemia) [µM] | GI50 (MCF7 breast) [µM] | GI50 (NCI/ADR-RES ovarian) [µM]
CC(C)C(NC(=O)C(CCCCN)NC(=O)C(Cc1c[nH]c2ccccc12)NC(=O)C(Cc1ccc(O)cc1)NC(=O)C(CS)NC(=O)C(N)Cc1ccc2ccccc2c1)C(=O)NC(CS)C(=O)NC(C(N)=O)C(C)O (stereo not given) (H-[2Nal]CYWKVCT-NH2; configuration not given here) | > 100 | > 100 | > 12.5 | > 100 | > 100 µM | > 100 | > 100 µM | > 100 | > 100 µM | > 100 | > 100 µM | > 100 µM | > 100 | > 12.5 | > 100 µM | > 100 µM | > 100 | > 100 | – | –
O=c1c(-c2ccc(O)cc2)coc2cc(OC3OC(CO)C(O)C(O)C3O)cc(O)c12 (stereo not given) | > 10 | > 100 | > 10 | > 100 | > 100 µM | > 10 | > 100 µM | – | > 100 µM | – | > 100 µM | > 100 µM | > 100 | > 100 | > 100 µM | > 100 µM | > 100 | > 100 | > 100 | –
COC(=O)C1=C(C(=O)OC)C2OC1c1cc3ccccc3cc12 | – | 3.29 | 30.7 | – | 3.39 µM | – | 46.3 µM | – | 13.6 µM | – | 20.4 µM | – | 11.8 | 59.9 | – | – | – | 2.22 | – | –
CCOC(=O)c1csc(NC(=O)COc2cccc(/C=C3\CSc4ccccc4C3=O)c2)n1 | 0.561 | 1.69 | 5.66 | 8.58 | 22.6 µM | 9.3 | 25 µM | 1.59 | 6.97 µM | 0.608 | 2.18 µM | 0.105 µM | 0.57 | 7.25 | 3.69 µM | 17.9 µM | 0.638 | 2.11 | 1.13 | 2.46
COc1cc(/C=C\c2cc(/C=C\c3ccc(O)c(OC)c3)n(C(=O)CNc3ccc(Cl)cc3)n2)ccc1O | 3.03 | 12.8 | 41.8 | 4.87 | 18.3 µM | 3.17 | 12.5 µM | 3.63 | 13.9 µM | 3 | 9.27 µM | 3.35 µM | 15.8 | 11.9 | 2.88 µM | > 100 µM | 2.07 | 6.68 | 2.34 | 3.75
COC(=O)C1=C(O)[C@H](C(=O)OC)[C@]2(O)[C@@H](C(=O)OC)[C@H]1C[C@@H](c1ccc(OC(=O)/C=C/c3ccco3)cc1)[C@@H]2C(=O)OC | 11.8 | 30.6 | 32.2 | 15 | 87.9 µM | 33 | > 100 µM | 42.4 | > 100 µM | 11.5 | > 100 µM | – | – | > 100 | – | – | 13.9 | 75.1 | 40.5 | 12.3
CCOc1c(C#N)c2c(N)ncnc2n1C1OC(CO)C(O)C1O (stereo not given) | 3.76 | > 24.9 | > 100 | 2.17 | 10 µM | 2.48 | > 100 µM | 4.81 | > 100 µM | 2.89 | > 34.1 µM | 3.69 µM | 34.4 | > 100 | 3.75 µM | > 57.2 µM | 1.94 | 6.94 | 2.45 | 4.51
C1CCN2CC3CCCN4CCCC(C2C1)C34 (stereo not given) | – | > 100 | > 100 | – | > 100 µM | – | > 100 µM | – | > 100 µM | – | > 100 µM | – | > 100 | > 100 | > 100 µM and 24.7 µM | > 100 µM | – | > 100 | – | –
CC(C)CCC(=O)[C@@H](C)[C@H]1[C@@H](OC2OCC(O)C(O)C2NS(C)(=O)=O)C[C@H]2[C@@H]3CC=C4C[C@@H](O)CC[C@]4(C)[C@H]3CC[C@]12C (stereo not given in full) | 0.181 | 0.93 | > 40 | 1.42 | 5.92 µM | 1.42 | 4.86 µM | 7.63 | 37.2 µM | 3.02 | 12.5 µM | 3.3 µM | 12.7 | 5.73 | 5.12 µM | 28.6 µM | – | – | 1.26 | 9.82
CCc1nc2cc(/C=C/C(=O)NO)ccc2c(=O)n1CCc1ccc(F)cc1 | 1.76 | 3.89 | 3.15 | 1.26 | 3.65 µM | 1.08 | 3.82 µM | – | – | 1.49 | 9.06 µM | 1.62 µM | 3.7 | > 100 | 2.34 µM | > 100 µM | 4.59 | > 100 | 1.31 | 0.577
COc1ccc(/C=C\c2cc(OC)c(OC)c(OC)c2)c(O)c1O | – | 16.3 | – | – | 30.1 µM and 90.2 µM | 0.106 | 9.22 µM and 4.42 µM | 0.0517 | 7.13 µM and 9.64 µM | 20.1 | 36.1 µM and 103 µM | 0.0598 µM and 0.0848 µM | – | – | 0.959 µM | 17 µM and 63.5 µM | – | 0.376 | 0.05 | –
CC1=NN(C(=O)c2ccncc2)C(=O)C1N=Nc1ccc2ccccc2c1 (stereo not given) | – | > 100 | > 100 | – | > 100 µM | – | > 100 µM | – | > 100 µM | – | > 100 µM | – | > 100 | > 100 | – | > 100 µM | – | > 20.6 | – | –
Cc1nnc(-c2ccc(C)c(-c3ccc(C(=O)NCc4ccc(Cl)cc4)cc3)c2)o1 | 18.7 | > 25 | > 25 | 9.08 | > 23.7 µM | 11.9 | > 25 µM | > 25 | > 25 µM | 19.8 | > 25 µM | 11.3 µM | > 25 | > 19 | 3.41 µM | 16.4 µM | 8.55 | 24.5 | 7.37 | 9.04
CC(=O)O[C@H]1C(=O)[C@@]2(C)[C@H]([C@H](OC(=O)c3ccccc3)[C@@]3(O)C[C@H](O)C(C)=C1C3(C)C)[C@]1(OC(C)=O)CO[C@@H]1C[C@@H]2O | – | > 100 | > 100 | – | 81.5 µM | – | > 100 µM | – | > 100 µM | – | 86.6 µM | – | > 100 | > 100 | – | > 100 µM | – | > 100 | – | –
NNC(=S)Nc1cccc(Cl)c1 | – | > 100 | > 100 | – | > 100 µM | – | > 100 µM | – | > 100 µM | – | > 100 µM | – | > 100 | > 100 | – | > 100 µM | – | > 100 | – | –
O=S(=O)(Nc1ccc2ccccc2c1)c1ccc(-c2cnc(C3CC3)o2)cc1 | 3.1 | 18.7 | 5.81 | 1.79 | 9.22 µM | 0.56 | 10.9 µM | 2.88 | 67.1 µM | 0.429 | 17.6 µM | 3.38 µM | 22.5 | 25 | 3.22 µM | 79.9 µM | 0.407 | 6.99 | 0.478 | 0.713
CN1CCN(Cc2ccc(NC(=O)c3cncc(C#Cc4cnn5ccccc45)c3)cc2C(F)(F)F)CC1 | 1.1 | 2.26 | 5.51 | 0.291 | 1.05 µM | 0.402 | 1.98 µM | 1.22 | 4.68 µM | 0.811 | 4.89 µM | 0.655 µM | 1.97 | 2.29 | 0.445 µM | 2.95 µM | 0.25 | 1.15 | 0.408 | 1.4
CCCN1C(=O)/C(=C/c2ccc(O)cc2)SC1=Nc1ccc(OC)cc1 | 16 | 34.6 | 29.5 | 36.6 | > 100 µM | 17.6 | 66.7 µM | 18.2 | 37.1 µM | 22.1 | 48.4 µM | 16.2 µM | 32.4 | 94.2 | 13.4 µM | 35.2 µM | 17.1 | 50.2 | 23.2 | 14
CC1CC(C)C2=NOS3=C2C1=NO3 (stereo not given) | – | > 100 | > 100 | – | > 100 µM | – | > 100 µM | – | > 100 µM | – | > 100 µM | – | > 100 | > 100 | – | > 100 µM | – | > 100 | – | –
COc1cc2ncn(-c3cc(OCc4ccccc4C(F)(F)F)c(C(C)=O)s3)c2cc1OC | > 25 | > 25 | > 25 | > 25 | > 25 µM | > 25 | > 25 µM | > 25 | > 25 µM | > 25 | > 25 µM | > 25 µM | > 25 | > 25 | > 25 µM | > 25 µM | > 25 | > 25 | > 25 | > 25
Nc1nc(N)c(N=Nc2ccc(C(=O)O)c(O)c2)c(N)n1 | – | > 100 | > 100 | – | > 100 µM | – | > 100 µM | – | > 100 µM | – | > 100 µM | – | > 100 | > 100 | – | 35.1 µM | – | – | – | –
CSc1ccc(C2=NN(C(C)=O)C(c3ccc(F)cc3)C2)cc1 (stereo not given) | 15.6 | 35.7 | 32.9 | 13.2 | 31.4 µM | 15.9 | 50.7 µM | 19.4 | 42 µM | 15.2 | 46 µM | 16.5 µM | 34.9 | 41.3 | 15.9 µM | 37.5 µM | 5.56 | 23.6 | 17.2 | 16.4
CO[C@@H]1[C@H]2[C@@H](C)c3ccoc3C[C@@H]2[C@@]2(C)CC[C@H](OC(=O)c3ccccc3)[C@](C)(C(=O)O)[C@]2(O)[C@@H]1OC(=O)c1ccccc1 | 15.8 | > 50 | 35.3 | 7.34 | 15.2 µM | 13.4 | > 50 µM | 14.3 | > 50 µM | 13.5 | > 50 µM | 10.6 µM | 28.5 | > 50 | 22.1 µM | > 50 µM | 14.7 | > 50 | 17.4 | 11.7
CC[C@]12C=CCN3CC[C@@]4(c5ccc(OC)cc5N(C)[C@H]4[C@@](O)(C(=O)OC)[C@@H]1OC(=O)CCC(=O)N[C@H](Cc1c[nH]c4ccccc14)C(=O)OC)[C@@H]32 | 3.08 | > 100 | 37.8 | 3.47 | 14.3 µM | 14.8 | 32.8 µM | 7.78 | 35 µM | 3.11 | 14.4 µM | 13.5 µM | 54.3 | 16.1 | 6.5 µM | 28.4 µM | – | – | 2.98 | 11.3
CN(O)C(=S)c1ccccc1 | – | 14.3 | 7.88 | – | 1.75 µM | – | 18.3 µM | – | 33.2 µM | – | – | – | 19.8 | > 100 | – | 19.6 µM | – | 7.04 | – | –
C=C1CCC2C3(C)COC(c4ccc(Cl)cc4)OC3CCC2(C)C1/C=C/C1=CCOC1=O (stereo not given) | 29.8 | > 100 | > 100 | – | – | 4.42 | > 100 µM | 4.07 | > 100 µM | 5.52 | > 100 µM | 3.19 µM | > 100 | > 100 | – | – | 17 | > 100 | 3.35 | 4.98
COc1ccc(CNc2cnc3cc(N)cc(N)c3n2)cc1 | 17.2 | 31.6 | 76.2 | 33.6 | > 100 µM | 33.8 | > 100 µM | 19.7 | 39.8 µM | 42 | > 100 µM | 15.1 µM | 29.1 | > 100 | 64.5 µM | > 100 µM | – | – | 37.5 | 25.5
